Structures can show the parent of a compound that is named as a salt. Where two headings read alike, the source gives them in different places.
What was measured:
Test in all cases: MIC, Agar (Mueller Hinton) Dilution Method
Format in all cases: cell-based
Ps. aeruginosa 8780 = conditions: Pseudomonas aeruginosa, Gram Negative
Description: (§1) The in vitro activity of the compounds of formula I of the present invention as measured by the Minimum Inhibitory Concentration (MIC) in micrograms/ml utilizing the Agar (Mueller Hinton) Dilution Method against a variety of Gram-positive and Gram-negative organisms, is set forth in Table 1.

Prot. mirabilis 620A = conditions: Proteus mirabilis
Description: as §1

Str. pyogenes 503-782 = conditions: Streptococcus pyogenes, 503782
Description: as §1

E. coli Leo HA2 = conditions: Escherichia coli, LEOHA2, Gram Negative
Description: as §1

Ent. hirae ATCC 8043 = conditions: Enterococcus hirae, ATCC8043, Gram Positive and Others
Description: as §1

E. coli 94 = conditions: Escherichia coli, Gram Negative
Description: as §1

E. coli 2008 E = conditions: Escherichia coli
Description: as §1

E. coli TEM-1a = conditions: Escherichia coli, TEM1A
Description: as §1

Ps. aeruginosa 1937E = conditions: Pseudomonas aeruginosa, Gram Negative
Description: as §1

Micrococcus luteus PCI = conditions: Micrococcus luteus PCI; Gram Positive and Others; read-out: MIC
Description: as §1

Escherichia coli 257 = conditions: Gram Negative
Description: as §1

Staph. aureus 67 = conditions: Staphylococcus aureus
Description: as §1

Enter. cloacae 5699 = conditions: Enterobacter cloacae, Gram Negative
Description: as §1

E. coli DC-0 = conditions: Escherichia coli, DC0, Gram Negative
Description: as §1

Prot. mirabilis 190 = conditions: Proteus mirabilis
Description: as §1

Ser. marcescens MA = conditions: Serratia marcescens, Gram Negative
Description: as §1

E. coli ATCC 25922 = conditions: Escherichia coli, ATCC25922
Description: as §1

E. coli 2721B = conditions: Escherichia coli
Description: as §1

K. oxytoca 1082EN = conditions: Klebsiella oxytoca; K. oxytoca 1082EN; Gram Negative; read-out: MIC
Description: as §1

Xan. maltophilia 2897B = conditions: Stenotrophomonas maltophilia, Gram Negative
Description: as §1

Ps. aeruginosa 56-1B = conditions: Pseudomonas aeruginosa, 561B
Description: as §1

Staph. aureus 404 = conditions: Staphylococcus aureus, 404
Description: as §1

Staph. aureus 3647B = conditions: Staphylococcus aureus, 3647B
Description: as §1

Mycobacterium phlei 78 = conditions: Mycolicibacterium phlei
Description: as §1

Staph. aureus 95 = conditions: Staphylococcus aureus, 95
Description: as §1

Prot. vulgaris 1028 BC = conditions: Proteus vulgaris
Description: as §1

Prot. mirabilis 503-1136 = conditions: Proteus mirabilis, 5031136
Description: as §1

Staph. aureus ATCC 29213 = conditions: Staphylococcus aureus, ATCC29213
Description: as §1

Klebsiella pneumoniae A = conditions: Gram Negative
Description: as §1

E. coli 1527E = conditions: Escherichia coli, Gram Negative
Description: as §1

Ser. marcescens 1071 = conditions: Serratia marcescens, 1071
Description: as §1

Enter. cloacae 4192-2 = conditions: Enterobacter cloacae, 41922
Description: as §1

Staph. pyogenes 4 = test system: Staph. pyogenes 4
Description: as §1

[1] = test system: Pseudomonas aeruginosa 5712; conditions: Gram Negative
Description: as §1

Ps. aeruginosa 18SH = conditions: Pseudomonas aeruginosa, constitutive ß-lactamase producer, Gram Negative
Description: as §1

E. coli Leo HA2M4 = conditions: Escherichia coli, LEOHA2M4
Description: as §1

Staph. aureus 82 = conditions: Staphylococcus aureus
Description: as §1

Ps. aeruginosa K799/61 = conditions: Pseudomonas aeruginosa; Ps. aeruginosa K799/61; Gram Negative; read-out: MIC
Description: as §1

| SMILES | MIC (Ps. aeruginosa 8780) | MIC (E. coli Leo HA2) | MIC (Ent. hirae ATCC 8043) | MIC (E. coli 94) | MIC (E. coli TEM-1a) | MIC (Ps. aeruginosa 1937E) | MIC (Micrococcus luteus PCI) | MIC (Escherichia coli 257) | MIC (Enter. cloacae 5699) | MIC (E. coli DC-0) | MIC (Ser. marcescens MA) | MIC (K. oxytoca 1082EN) | MIC (Xan. maltophilia 2897B) | MIC (Staph. aureus 404) | MIC (Staph. aureus 3647B) | MIC (Staph. aureus 95) | MIC (Klebsiella pneumoniae A) | MIC (E. coli 1527E) | MIC (Ser. marcescens 1071) | MIC [1] | also measured |
| --- | --- | --- | --- | --- | --- | --- | --- | --- | --- | --- | --- | --- | --- | --- | --- | --- | --- | --- | --- | --- | --- |
| N#CCC(=O)N[C@@H]1C(=O)N2C(C(=O)O)=C(COC(=O)N[C@H]3CCN(c4c(F)cc5c(=O)c(C(=O)O)cn(C6CC6)c5c4F)C3)CS[C@H]12 [Formula Iba, [6R-[3(S^*), 6 alpha, 7 beta]]-3-[[[[[1-(3-Carboxy-1-cyclopropyl-6,8-difluoro-1,4-dihydro-4-oxo-7-quinolinyl-3-pyrrolidinyl]-amino]carbonyl]oxy]methyl]-7-[(cyanoacetyl)amino]-8-oxo-5-thia 1-azabicyclo[4.2.0]oct-2-ene-2-carboxylic acid monosodium salt] | 0.5 µg/mL | ≤ 0.0156 µg/mL | 0.5 µg/mL | 0.0313 µg/mL | 0.0313 µg/mL | 0.25 µg/mL | 0.0625 µg/mL | 0.0313 µg/mL | 0.0625 µg/mL | 0.5 µg/mL | 4 µg/mL | ≤ 0.0156 µg/mL | 0.25 µg/mL | 0.0313 µg/mL | 0.0313 µg/mL | 0.0313 µg/mL | 0.0625 µg/mL | ≤ 0.0156 µg/mL | 0.0313 µg/mL | 2 µg/mL | MIC (Prot. mirabilis 620A; Prot. mirabilis 620A, Gram Negative, read-out: MIC): 0.0625 µg/mL; MIC (Str. pyogenes 503-782): 0.0313 µg/mL; MIC (E. coli 2008 E; 2008E): 0.0313 µg/mL; MIC (Staph. aureus 67; 67): 0.125 µg/mL; MIC (Prot. mirabilis 190; 190): 0.0313 µg/mL; MIC (E. coli ATCC 25922): 0.0313 µg/mL; MIC (E. coli 2721B; E. coli 2721B, Gram Negative, read-out: MIC): ≤ 0.0156 µg/mL; MIC (Ps. aeruginosa 56-1B): 0.125 µg/mL; MIC (Mycobacterium phlei 78; Mycobacterium phlei 78, Gram Positive and Others, read-out: MIC): 0.0625 µg/mL; MIC (Prot. vulgaris 1028 BC; Prot. vulgaris 1028 BC, Gram Negative, read-out: MIC): ≤ 0.0156 µg/mL; MIC (Prot. mirabilis 503-1136; Prot. mirabilis 503-1136, Gram Negative, read-out: MIC): 0.0625 µg/mL; MIC (Staph. aureus ATCC 29213; Staph. aureus ATCC 29213, Gram Positive and Others, read-out: MIC): 0.0625 µg/mL; MIC (Enter. cloacae 4192-2; Enter. cloacae 4192-2, Gram Negative, read-out: MIC): ≤ 0.0156 µg/mL; MIC (Staph. pyogenes 4; 4): 0.0313 µg/mL; MIC (Ps. aeruginosa 18SH): 0.25 µg/mL; MIC (E. coli Leo HA2M4; E. coli Leo HA2M4, Gram Negative, read-out: MIC): ≤ 0.0156 µg/mL; MIC (Staph. aureus 82; Staph. aureus 82, Gram Positive and Others, read-out: MIC): 0.0625 µg/mL; MIC (Ps. aeruginosa K799/61): 0.0625 µg/mL |
| N#CCC(=O)N[C@@H]1C(=O)N2C(C(=O)O)=C(COC(=O)N[C@@H]3CCN(c4c(F)cc5c(=O)c(C(=O)O)cn(C6CC6)c5c4F)C3)CS[C@H]12 [Formula Ibb, [6R-[3(R^*), 6 alpha, 7 beta]]-3-[[[[[1-(3-Carboxy-1-cyclopropyl-6,8-difluoro-1,4-dihydro-4-oxo-7-quinolinyl-3-pyrrolidinyi]amino]carbonyl]oxy]methyL]-7-[(cyanoacetyl)amino]-8-oxo-5-thia-1-azabicyclo[4.2.0]oct-2-ene-2-carboxylic acid monosodium salt] | 2 µg/mL | ≤ 0.0156 µg/mL | 1 µg/mL | 0.125 µg/mL | 0.125 µg/mL | 1 µg/mL | 0.0625 µg/mL | 0.125 µg/mL | 0.25 µg/mL | 2 µg/mL | 8 µg/mL | 0.0625 µg/mL | 0.5 µg/mL | 0.125 µg/mL | 0.125 µg/mL | 0.125 µg/mL | 0.25 µg/mL | 0.0625 µg/mL | 0.125 µg/mL | 4 µg/mL | MIC (Prot. mirabilis 620A; 620A): 0.125 µg/mL; MIC (Str. pyogenes 503-782; Str. pyogenes 503-782, Gram Positive and Others, read-out: MIC): 0.0625 µg/mL; MIC (E. coli 2008 E; E. coli 2008 E, Gram Negative, read-out: MIC): 0.0625 µg/mL; MIC (Staph. aureus 67; Staph. aureus 67, methicillin-resistant, Gram Positive and Others, read-out: MIC): 0.5 µg/mL; MIC (Prot. mirabilis 190; Prot. mirabilis 190, Gram Negative, read-out: MIC): 0.0625 µg/mL; MIC (E. coli ATCC 25922; E. coli ATCC 25922, Gram Negative, read-out: MIC): 0.0625 µg/mL; MIC (E. coli 2721B; 2721B): 0.0313 µg/mL; MIC (Ps. aeruginosa 56-1B; Ps. aeruginosa 56-1B, Gram Negative, read-out: MIC): 0.5 µg/mL; MIC (Mycobacterium phlei 78; 78): 0.125 µg/mL; MIC (Prot. vulgaris 1028 BC; 1028BC): 0.0313 µg/mL; MIC (Prot. mirabilis 503-1136): 0.125 µg/mL; MIC (Staph. aureus ATCC 29213): 0.125 µg/mL; MIC (Enter. cloacae 4192-2): 0.0313 µg/mL; MIC (Staph. pyogenes 4; Staph. pyogenes 4, Gram Positive and Others, read-out: MIC): 0.0625 µg/mL; MIC (Ps. aeruginosa 18SH): 1 µg/mL; MIC (E. coli Leo HA2M4): 0.0313 µg/mL; MIC (Staph. aureus 82; 82): 0.125 µg/mL; MIC (Ps. aeruginosa K799/61): 0.25 µg/mL |
